In article PMC7462985, “Inhibitors of BRAF dimers using an allosteric site” (Nature Communications, 2020):

Assays:
[1] = system: A375 cells (BRAF^V600E monomers); assay: p-ERK inhibition by western blot; settings: A375 cells
[2] = molecular target: T1, BRAF^WT (Homo sapiens, UniProt P15056); assay: SelectScreen Z'-LYTE kinase activity assay; type: biochemical; settings: 100 μM ATP
T1 construct: purchased Invitrogen (SelectScreen service)
Description: (§1) BRAF kinase assays were performed using the Z’-LYTE™ enzymatic assay (Invitrogen, USA). […] Titrations were performed using a 1:3 dilution. Assays were performed using SelectScreen (Invitrogen).

[3] = molecular target: BRAF^V600E (Homo sapiens, UniProt P15056, V600E); assay: SelectScreen Z'-LYTE kinase activity assay; type: biochemical; set-up: purchased Invitrogen (SelectScreen service); settings: 100 μM ATP
BRAF^V600E, sequence (P15056 whole entry V600E): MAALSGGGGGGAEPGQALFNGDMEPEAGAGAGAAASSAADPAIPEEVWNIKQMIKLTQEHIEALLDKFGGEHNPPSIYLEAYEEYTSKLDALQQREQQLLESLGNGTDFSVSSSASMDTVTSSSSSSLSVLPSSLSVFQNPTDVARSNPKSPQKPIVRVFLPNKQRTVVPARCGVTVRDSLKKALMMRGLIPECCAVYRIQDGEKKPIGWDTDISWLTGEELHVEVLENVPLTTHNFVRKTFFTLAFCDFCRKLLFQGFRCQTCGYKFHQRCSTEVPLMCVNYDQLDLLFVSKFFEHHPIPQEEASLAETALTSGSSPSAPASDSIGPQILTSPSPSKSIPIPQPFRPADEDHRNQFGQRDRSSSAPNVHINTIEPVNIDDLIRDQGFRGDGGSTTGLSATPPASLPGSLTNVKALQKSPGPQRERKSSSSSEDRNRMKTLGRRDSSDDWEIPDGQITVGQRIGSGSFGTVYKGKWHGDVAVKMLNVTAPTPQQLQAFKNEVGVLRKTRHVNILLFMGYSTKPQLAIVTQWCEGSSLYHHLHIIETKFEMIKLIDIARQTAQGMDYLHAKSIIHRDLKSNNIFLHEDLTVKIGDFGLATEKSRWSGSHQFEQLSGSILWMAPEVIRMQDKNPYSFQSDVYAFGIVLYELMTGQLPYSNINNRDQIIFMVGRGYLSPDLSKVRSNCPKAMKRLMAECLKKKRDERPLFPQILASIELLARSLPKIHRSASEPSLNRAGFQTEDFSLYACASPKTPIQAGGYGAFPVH
Description: as §1

[4] = system: RAS^MUT/BRAF^WT melanoma or lung cancer cells (SKMEL-30, SKMEL-2, CALU6); assay: ERK signaling inhibition by western blot; settings: RAS^MUT/BRAF^WT cells, 1 h

T1 sequence (P15056 whole entry): as the sequence (P15056 whole entry V600E) above, with E600V counted along it

Row | SMILES | inhibitory activity for BRAF^V600E monomers in comparison to PHI1 (in words) ([1]; 1 h) | IC50 [2] [nM] | IC50 [3] [nM] | concentration that robustly inhibits ERK signaling ([1]; 3 hrs, immunoblot) [µM] | effect on p-ERK levels (in words) [4]
1 | CCc1cc(N2CCC(NCc3ccc(NC(=O)c4ccc(C)c(C#Cc5cnc6cccnn56)c4)cc3C(F)(F)F)CC2)ncn1 [PHI2] | increased | 598 ± 113 | 35 ± 2.8 | – | –
2 | CCCS(=O)(=O)Nc1ccc(F)c(C(=O)c2c[nH]c3ncc(-c4ccc(Cl)cc4)cc23)c1F [Vemurafenib] | – | – | – | 0.3 | enhances p-ERK levels
